Key:
[1] = molecular target: T1, Amine oxidase [flavin-containing] A (Homo sapiens, UniProt P21397); assay: Inhibition of recombinant human MAO-A assessed as reduction in 4-hydroxyquinoline formation using kynuramine as substrate after 20 mins by fluorometric assay
T1 sequence (P21397 whole entry): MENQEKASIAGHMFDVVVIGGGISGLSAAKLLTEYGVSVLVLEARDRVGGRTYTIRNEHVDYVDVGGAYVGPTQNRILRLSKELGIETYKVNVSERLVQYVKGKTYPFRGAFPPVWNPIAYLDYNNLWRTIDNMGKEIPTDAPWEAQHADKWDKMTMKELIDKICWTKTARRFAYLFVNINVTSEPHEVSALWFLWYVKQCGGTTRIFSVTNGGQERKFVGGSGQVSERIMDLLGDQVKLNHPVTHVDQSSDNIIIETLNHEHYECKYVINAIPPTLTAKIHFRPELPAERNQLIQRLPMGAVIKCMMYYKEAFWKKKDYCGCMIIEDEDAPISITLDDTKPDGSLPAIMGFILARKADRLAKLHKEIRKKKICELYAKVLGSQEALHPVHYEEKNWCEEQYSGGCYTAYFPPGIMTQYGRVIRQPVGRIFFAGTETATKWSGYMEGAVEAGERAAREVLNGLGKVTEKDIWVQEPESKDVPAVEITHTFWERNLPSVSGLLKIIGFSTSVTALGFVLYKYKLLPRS

[2] = molecular target: T2, Amine oxidase [flavin-containing] B (Homo sapiens, UniProt P27338); assay: Time-dependent inhibition of recombinant human MAO-B assessed as reduction in 4-hydroxyquinoline formation at 0.2 uM using kynuramine as substrate preincubated up to 15 mins followed by substrate addition by fluorometric assay
T2 sequence (P27338 whole entry): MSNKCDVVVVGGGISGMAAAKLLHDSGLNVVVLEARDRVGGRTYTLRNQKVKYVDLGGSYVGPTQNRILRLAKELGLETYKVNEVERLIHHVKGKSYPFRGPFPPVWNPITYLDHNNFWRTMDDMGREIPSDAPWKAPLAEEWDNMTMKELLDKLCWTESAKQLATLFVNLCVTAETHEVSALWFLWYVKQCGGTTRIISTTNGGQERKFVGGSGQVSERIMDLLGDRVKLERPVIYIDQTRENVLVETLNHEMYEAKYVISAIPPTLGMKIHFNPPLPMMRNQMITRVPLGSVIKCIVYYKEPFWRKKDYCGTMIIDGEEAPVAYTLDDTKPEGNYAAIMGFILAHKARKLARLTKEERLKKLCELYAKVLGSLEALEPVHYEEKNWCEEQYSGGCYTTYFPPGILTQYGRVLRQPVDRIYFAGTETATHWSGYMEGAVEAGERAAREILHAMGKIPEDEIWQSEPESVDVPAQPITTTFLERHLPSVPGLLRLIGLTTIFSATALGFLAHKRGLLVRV

[3] = molecular target: T1, Amine oxidase [flavin-containing] A; assay: Inhibition of recombinant human MAO-A at 15 uM after 20 mins relative to control
[4] = molecular target: T1, Amine oxidase [flavin-containing] A; assay: Competitive inhibition of recombinant human MAO-A assessed as reduction in 4-hydroxyquinoline formation using varying levels of kynuramine as substrate after 20 mins by Lineweaver-Burk plot analysis
[5] = molecular target: T2, Amine oxidase [flavin-containing] B; assay: Inhibition of recombinant human MAO-B at 5 uM after 20 mins relative to control
[6] = molecular target: T1, Amine oxidase [flavin-containing] A; assay: Reversible inhibition of recombinant human MAO-A assessed as recovery of enzyme activity at 15 uM preincubated for 20 mins followed by overnight dialysis relative to control; set-up: scale not given: the % may be the effect or the level left; settings: read-out: Activity
[7] = molecular target: T2, Amine oxidase [flavin-containing] B; assay: Reversible inhibition of recombinant human MAO-B assessed as recovery of enzyme activity at 5 uM preincubated for 20 mins followed by overnight dialysis; set-up: scale not given: the % may be the effect or the level left
[8] = molecular target: T1, Amine oxidase [flavin-containing] A; assay: Time-dependent inhibition of recombinant human MAO-A assessed as reduction in 4-hydroxyquinoline formation at 0.5 uM using kynuramine as substrate preincubated up to 15 mins followed by substrate addition by fluorometric assay
[9] = molecular target: T2, Amine oxidase [flavin-containing] B; assay: Inhibition of recombinant human MAO-B after 30 mins
[10] = molecular target: T1, Amine oxidase [flavin-containing] A; assay: Inhibition of recombinant human MAO-A after 30 mins

IC50 [1] [µM]	TDI [2]	inhibition at 15 µM [3] [%]	Ki [4] [µM]	inhibition (INH) [5] [%]	activity at 15 µM [6] [%]	Activity [7] [%]	TDI [8]	Structure (SMILES)	IC50 [9] [µM]	IC50 [10] [µM]
0.121	Not Active	> 95	0.0592	90	> 90	90	Not Active	COc1ccc(-c2cc(=O)c3c(O)cc(O)cc3o2)cc1 [ACACETIN]	–	–
–	–	–	–	–	–	–	–	O=C1C[C@@H](c2ccc(O)cc2)Oc2cc(O)cc(O)c21 [NARINGENIN]	288	955

Source: ChEMBL document CHEMBL4041501, “Isolation of Acacetin from Calea urticifolia with Inhibitory Properties against Human Monoamine Oxidase-A and -B” (J Nat Prod, 2016)
